In ChEMBL document CHEMBL5465560, “Selectivity Literature for EUbOPEN Chemogenomic Library” (2024):

Key:
[1] = biological target: MAP kinase-interacting serine/threonine-protein kinase 2 (Homo sapiens, UniProt Q9HBH9); conditions: at 10 µM
[2] = biological target: T1, Serine/threonine-protein kinase Nek1 (Homo sapiens) (UniProt Q96PY6); test: Selectivity interaction (Kinase screening (Nanosyn)) EUB0000604a NEK1
T1 sequence (whole entry): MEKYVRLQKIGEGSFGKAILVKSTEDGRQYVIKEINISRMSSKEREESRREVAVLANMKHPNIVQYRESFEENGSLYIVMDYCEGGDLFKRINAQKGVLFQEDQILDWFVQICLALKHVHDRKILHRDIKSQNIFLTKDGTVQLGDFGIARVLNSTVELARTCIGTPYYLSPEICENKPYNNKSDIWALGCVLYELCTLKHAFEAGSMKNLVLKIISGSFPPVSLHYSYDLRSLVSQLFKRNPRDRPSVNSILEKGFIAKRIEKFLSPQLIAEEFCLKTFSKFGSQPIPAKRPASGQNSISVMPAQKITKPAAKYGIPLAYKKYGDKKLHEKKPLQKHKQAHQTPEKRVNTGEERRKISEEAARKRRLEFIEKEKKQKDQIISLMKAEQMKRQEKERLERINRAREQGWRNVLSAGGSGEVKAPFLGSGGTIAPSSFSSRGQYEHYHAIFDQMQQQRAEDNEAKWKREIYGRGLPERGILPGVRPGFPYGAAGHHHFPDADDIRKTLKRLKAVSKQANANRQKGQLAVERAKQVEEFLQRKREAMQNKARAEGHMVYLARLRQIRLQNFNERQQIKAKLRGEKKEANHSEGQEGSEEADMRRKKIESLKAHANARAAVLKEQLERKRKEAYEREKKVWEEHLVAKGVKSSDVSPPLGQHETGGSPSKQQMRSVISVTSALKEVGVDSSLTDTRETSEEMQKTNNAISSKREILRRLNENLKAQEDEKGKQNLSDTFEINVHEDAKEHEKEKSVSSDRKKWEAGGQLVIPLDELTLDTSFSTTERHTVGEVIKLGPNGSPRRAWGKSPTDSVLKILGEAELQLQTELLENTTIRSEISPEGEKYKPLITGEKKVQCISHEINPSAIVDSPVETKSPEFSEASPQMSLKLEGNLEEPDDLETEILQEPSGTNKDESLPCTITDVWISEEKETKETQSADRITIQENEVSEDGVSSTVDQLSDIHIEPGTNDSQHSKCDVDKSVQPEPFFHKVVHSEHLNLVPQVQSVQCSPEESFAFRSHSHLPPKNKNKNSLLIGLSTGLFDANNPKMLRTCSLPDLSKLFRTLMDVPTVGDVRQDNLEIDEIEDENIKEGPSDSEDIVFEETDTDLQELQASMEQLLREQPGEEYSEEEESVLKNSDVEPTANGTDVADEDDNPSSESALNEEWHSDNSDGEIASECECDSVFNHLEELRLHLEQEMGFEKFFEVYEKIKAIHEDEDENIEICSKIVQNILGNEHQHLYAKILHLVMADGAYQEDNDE

[3] = biological target: Vascular endothelial growth factor receptor 2 (Homo sapiens, UniProt P35968); test: Selectivity interaction (Kinase panel (enzymatic assay)) EUB0000595a KDR
Chain of Vascular endothelial growth factor receptor 2 (P35968 whole entry): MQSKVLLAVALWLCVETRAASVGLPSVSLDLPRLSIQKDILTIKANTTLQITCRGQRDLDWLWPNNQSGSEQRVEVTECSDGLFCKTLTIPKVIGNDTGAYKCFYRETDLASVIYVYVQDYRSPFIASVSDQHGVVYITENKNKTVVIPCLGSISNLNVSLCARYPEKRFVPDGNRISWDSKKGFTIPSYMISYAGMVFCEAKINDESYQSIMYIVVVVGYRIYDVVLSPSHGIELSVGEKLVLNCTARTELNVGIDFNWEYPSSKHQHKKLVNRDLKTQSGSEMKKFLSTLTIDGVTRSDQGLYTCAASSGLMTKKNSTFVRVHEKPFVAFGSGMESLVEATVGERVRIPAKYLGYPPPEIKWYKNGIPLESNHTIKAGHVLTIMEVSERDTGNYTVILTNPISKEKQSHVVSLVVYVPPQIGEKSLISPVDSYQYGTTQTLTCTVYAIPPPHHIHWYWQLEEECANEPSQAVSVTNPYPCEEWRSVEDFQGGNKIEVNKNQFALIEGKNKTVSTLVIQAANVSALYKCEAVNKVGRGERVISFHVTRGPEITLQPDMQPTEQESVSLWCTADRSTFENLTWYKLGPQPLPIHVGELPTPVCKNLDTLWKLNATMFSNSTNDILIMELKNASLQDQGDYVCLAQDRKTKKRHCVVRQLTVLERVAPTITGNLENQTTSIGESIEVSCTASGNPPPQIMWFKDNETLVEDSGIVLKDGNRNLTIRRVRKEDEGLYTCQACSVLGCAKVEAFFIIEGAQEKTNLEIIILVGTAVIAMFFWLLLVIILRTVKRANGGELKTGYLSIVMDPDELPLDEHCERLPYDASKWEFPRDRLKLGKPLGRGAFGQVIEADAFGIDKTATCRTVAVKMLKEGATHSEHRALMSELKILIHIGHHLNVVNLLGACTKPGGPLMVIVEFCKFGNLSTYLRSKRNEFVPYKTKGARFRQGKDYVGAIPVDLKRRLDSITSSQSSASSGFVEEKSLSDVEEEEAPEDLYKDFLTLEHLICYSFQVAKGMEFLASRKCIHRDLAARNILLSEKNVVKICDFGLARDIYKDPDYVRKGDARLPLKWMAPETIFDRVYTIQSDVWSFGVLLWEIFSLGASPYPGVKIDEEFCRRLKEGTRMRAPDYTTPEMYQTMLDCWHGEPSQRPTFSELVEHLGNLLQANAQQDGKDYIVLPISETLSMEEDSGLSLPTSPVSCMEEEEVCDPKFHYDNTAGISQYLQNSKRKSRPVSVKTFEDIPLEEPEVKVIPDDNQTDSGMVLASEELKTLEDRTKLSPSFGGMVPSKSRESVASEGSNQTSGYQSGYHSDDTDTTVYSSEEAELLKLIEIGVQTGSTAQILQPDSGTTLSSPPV

[4] = biological target: T2, Mitogen-activated protein kinase kinase kinase 12 (Homo sapiens) (UniProt Q12852); test: Selectivity interaction (KinomeScan (DiscoverX)) EUB0000229b MAP3K12; conditions: at 10 µM
T2 sequence (whole entry): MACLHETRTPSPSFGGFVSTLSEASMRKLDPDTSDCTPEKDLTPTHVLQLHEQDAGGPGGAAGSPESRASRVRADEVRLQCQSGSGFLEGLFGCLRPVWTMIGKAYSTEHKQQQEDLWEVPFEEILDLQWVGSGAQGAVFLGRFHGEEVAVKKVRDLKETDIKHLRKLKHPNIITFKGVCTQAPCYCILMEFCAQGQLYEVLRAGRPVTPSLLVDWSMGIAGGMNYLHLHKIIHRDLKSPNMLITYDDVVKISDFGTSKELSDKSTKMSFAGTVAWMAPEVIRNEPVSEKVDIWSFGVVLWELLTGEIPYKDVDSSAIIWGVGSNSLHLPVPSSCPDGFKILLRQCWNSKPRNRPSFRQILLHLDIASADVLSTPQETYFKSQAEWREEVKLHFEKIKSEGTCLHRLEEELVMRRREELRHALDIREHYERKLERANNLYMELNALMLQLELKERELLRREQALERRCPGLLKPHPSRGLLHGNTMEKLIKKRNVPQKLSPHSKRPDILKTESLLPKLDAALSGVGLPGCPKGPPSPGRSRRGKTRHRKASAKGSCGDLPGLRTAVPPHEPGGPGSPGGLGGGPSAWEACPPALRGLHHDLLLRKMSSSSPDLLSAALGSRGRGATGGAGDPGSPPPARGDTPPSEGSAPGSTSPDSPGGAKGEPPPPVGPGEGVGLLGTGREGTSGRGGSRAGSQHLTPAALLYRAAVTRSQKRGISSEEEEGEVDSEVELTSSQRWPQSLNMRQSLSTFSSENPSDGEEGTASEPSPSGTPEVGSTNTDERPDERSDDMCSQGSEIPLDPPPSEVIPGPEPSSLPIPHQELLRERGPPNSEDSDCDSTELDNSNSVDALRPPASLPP

[5] = biological target: T3, Serine/threonine-protein kinase DCLK1 (Homo sapiens) (UniProt O15075); test: Selectivity interaction (KinomeScan (DiscoverX)) EUB0000655a DCLK1; conditions: at 10 µM
T3 sequence (whole entry): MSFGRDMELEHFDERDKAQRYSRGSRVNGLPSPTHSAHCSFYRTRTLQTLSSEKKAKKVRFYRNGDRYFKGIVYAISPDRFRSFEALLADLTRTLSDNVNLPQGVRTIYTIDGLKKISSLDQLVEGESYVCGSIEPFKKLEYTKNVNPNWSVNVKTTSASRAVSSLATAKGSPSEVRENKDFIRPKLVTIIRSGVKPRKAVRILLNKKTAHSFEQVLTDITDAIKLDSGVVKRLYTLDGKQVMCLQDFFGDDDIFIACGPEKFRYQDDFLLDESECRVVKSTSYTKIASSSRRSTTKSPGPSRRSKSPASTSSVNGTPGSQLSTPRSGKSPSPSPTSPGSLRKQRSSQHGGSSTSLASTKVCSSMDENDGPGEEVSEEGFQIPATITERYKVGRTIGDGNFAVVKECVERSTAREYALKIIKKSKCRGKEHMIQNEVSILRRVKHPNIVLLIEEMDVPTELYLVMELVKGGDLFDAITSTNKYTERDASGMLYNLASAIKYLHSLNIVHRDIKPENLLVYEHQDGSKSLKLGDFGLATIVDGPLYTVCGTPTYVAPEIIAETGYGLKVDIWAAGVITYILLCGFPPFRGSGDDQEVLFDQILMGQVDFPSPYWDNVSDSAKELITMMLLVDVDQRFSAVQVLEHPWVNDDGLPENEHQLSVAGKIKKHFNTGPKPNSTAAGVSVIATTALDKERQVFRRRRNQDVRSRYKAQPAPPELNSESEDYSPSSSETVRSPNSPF

[6] = biological target: Ephrin type-A receptor 2 (Homo sapiens) (UniProt P29317); test: Selectivity interaction (KinomeScan (DiscoverX)) EUB0001619a EPHA2; conditions: at 1 µM
Chain of Ephrin type-A receptor 2 (Homo sapiens) (P29317 whole entry): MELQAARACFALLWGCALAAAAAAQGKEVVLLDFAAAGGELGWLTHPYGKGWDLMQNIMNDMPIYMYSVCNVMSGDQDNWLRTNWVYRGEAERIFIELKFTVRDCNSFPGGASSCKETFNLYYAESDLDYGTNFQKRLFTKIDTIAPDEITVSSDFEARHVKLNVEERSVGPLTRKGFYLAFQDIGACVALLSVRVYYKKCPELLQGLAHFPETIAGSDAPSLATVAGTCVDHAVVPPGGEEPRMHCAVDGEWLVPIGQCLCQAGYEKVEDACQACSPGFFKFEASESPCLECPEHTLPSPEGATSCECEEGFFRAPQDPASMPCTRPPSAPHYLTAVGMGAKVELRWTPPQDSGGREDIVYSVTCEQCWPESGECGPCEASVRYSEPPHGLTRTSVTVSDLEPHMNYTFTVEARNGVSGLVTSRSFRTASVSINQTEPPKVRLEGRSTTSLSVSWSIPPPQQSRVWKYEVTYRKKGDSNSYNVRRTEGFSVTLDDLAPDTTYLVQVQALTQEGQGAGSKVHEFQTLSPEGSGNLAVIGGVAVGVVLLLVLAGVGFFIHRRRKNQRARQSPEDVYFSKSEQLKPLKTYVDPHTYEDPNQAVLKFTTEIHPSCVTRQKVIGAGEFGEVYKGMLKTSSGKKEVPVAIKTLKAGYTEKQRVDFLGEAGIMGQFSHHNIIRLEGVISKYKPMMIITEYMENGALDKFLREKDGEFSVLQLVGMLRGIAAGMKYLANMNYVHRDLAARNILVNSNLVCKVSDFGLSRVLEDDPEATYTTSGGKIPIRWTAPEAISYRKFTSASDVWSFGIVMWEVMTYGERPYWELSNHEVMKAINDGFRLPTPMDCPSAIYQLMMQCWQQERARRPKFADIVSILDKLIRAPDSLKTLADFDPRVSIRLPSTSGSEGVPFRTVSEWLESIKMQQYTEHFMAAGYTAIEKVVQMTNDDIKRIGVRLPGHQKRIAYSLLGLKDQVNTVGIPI

Chain of MAP kinase-interacting serine/threonine-protein kinase 2 (Q9HBH9 whole entry, looked up): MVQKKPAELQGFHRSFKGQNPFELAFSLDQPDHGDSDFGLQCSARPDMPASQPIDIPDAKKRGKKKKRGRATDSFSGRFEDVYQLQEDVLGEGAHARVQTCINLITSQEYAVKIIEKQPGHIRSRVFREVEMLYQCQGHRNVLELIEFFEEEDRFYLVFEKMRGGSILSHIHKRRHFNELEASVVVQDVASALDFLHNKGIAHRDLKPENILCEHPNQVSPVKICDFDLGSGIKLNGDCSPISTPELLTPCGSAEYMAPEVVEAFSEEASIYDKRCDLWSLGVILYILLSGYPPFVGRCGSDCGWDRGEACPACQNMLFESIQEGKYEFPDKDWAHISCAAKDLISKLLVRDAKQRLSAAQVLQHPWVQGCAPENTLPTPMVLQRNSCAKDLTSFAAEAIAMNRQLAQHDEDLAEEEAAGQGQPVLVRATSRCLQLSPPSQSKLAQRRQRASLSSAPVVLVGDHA

## Cc1cc([C@@H](C)Nc2ccccc2C(=O)O)c2nc(N3CCOCC3)cc(=O)n2c1 [AZD-6482]
[1]
  % of control: 92%

## Cc1cnc(Nc2ccc(F)cc2Cl)nc1-c1c[nH]c(C(=O)N[C@H](CO)c2cccc(Cl)c2)c1
[2]
  % of inhibition: 6%

## COCC(=O)NC/C=C/c1ccc2ncnc(Nc3ccc(Oc4ccc(C)nc4)c(C)c3)c2c1 [CP-724714]
[3]
  IC50: > 10 µM

## COc1cc(N(C)c2ccnc3ccc(C(F)(F)F)cc23)cc(OC)c1OC
[4]
  % binding: 78%

## CN(C)CCOc1ccc(-c2nc(-c3ccncc3)c(-c3ccc4c(c3)CC/C4=N\O)[nH]2)cc1
[5]
  % of control: 88%

## N#Cc1cccc(-c2c[nH]c3ncnc(N4CCOCC4)c23)c1
[6]
  % of control: 100%
